In PubChem BioAssay AID2305 (GlaxoSmithKline (GSK), 2010):

Test system: P. falciparum 3D7 growth, pLDH absorbance
Experiment: blood-stage malaria parasite growth potency – strain 3D7, dose response (AID 2305)

Row | SMILES | IC50 [µM]
1 | Cc1cccc2[nH]c(-c3ccc(-c4cccc(CN5CCC(CO)CC5)c4)s3)nc12 | 0.94
2 | CN(C)CCCN(C)C(=O)c1cc2cc(-c3ccccc3)ccc2n1S(=O)(=O)c1ccccc1 | 0.46
3 | NCc1ccc(-c2ccc3c(N)nccc3c2)cc1 | 0.89
4 | NC(N)=Nc1ccc(OCCCCCOc2ccc(N=C(N)N)cc2Br)c(Br)c1 | 0.26
5 | O=S(=O)(c1cc(Cl)c(Cl)cc1Cl)N1CCCCC(c2ccc(C(F)(F)F)cc2)=N1 | 0.2
6 | O=C(COc1cnc2ccccc2n1)Nc1ccccc1Sc1ccc(Cl)cc1 | 0.73
7 | CCCN(CCC)c1nn2c(=O)c(C(=O)N3CCN(Cc4ccccc4)CC3)cnc2s1 | 1
8 | Oc1ccccc1CNCc1ccc(-c2cnc(N3CCCC(c4ccccc4)C3)nc2)cc1 (stereo not given) | 0.69
9 | O=C(Nc1ccc(CN2CCN(S(=O)(=O)c3ccc(Cl)s3)CC2)cc1)c1cccs1 | 0.89
10 | COc1cccc(COCC(O)CN(CCc2ccccn2)C(=O)c2ccccc2F)c1 (stereo not given) | 0.82
11 | Oc1cccc(-c2cnc3ccc(NCc4ccc(F)cc4)nn23)c1 | 1.08
12 | CCc1cn2c3c(cc(C(=O)N[C@@H](Cc4ccccc4)[C@H](O)CNC4CCC4)cc13)N(C)S(=O)(=O)CC2 | 0.1
13 | CN(C)Cc1ccc(-c2ccc3c(Nc4ccc(Oc5ccccn5)cc4)ccnc3c2)o1 | 0.16
14 | O=C(C=Cc1cccc(F)c1)NC1CCC(CCN2CCc3ccc(-c4cnccn4)cc3CC2)CC1 (stereo not given) | 0.45
15 | C#Cc1cccc(NC(=O)[C@H](CC2CCCCC2)Nc2ccc(C#N)c3ccccc23)c1 | 0.59
16 | Cc1ccc(C2CCN(CCCCNC(=O)c3ccc(NC(=O)c4ccc(Cl)cc4)cc3)CC2)c(OCC2CC2)c1 | 0.89
17 | COc1cc(C(=O)N2CC[C@@H](CCN3CCC4(CC3)CN(S(C)(=O)=O)c3ccccc34)C[C@H]2Cc2ccc(Cl)c(Cl)c2)cc(OC)c1OC | 0.84
18 | O=[N+]([O-])c1cccc(C(Nc2ccccn2)c2ccc3cccnc3c2O)c1 (stereo not given) | 1.33
19 | COc1nc2c(CCN3CC[C@H](NCc4cc(C#N)c5c(c4)CCO5)[C@H](O)C3)ccnc2cc1F | 0.35
20 | COc1ccc(Oc2cnc(N)nc2N)c(C(C)C)c1 | 0.74
21 | Cc1cc2cc(/C=C/C(=O)NC3CCC(CCN4CCc5ccc(C#N)cc5CC4)CC3)ccc2[nH]1 (stereo not given) | 0.88
22 | Cc1ccccc1C1CCN(C2CCC(NC(=O)C3=Cc4cc(Cl)ccc4OC3)CC2)CC1 (stereo not given) | 0.89
23 | Cc1cc(N[C@@H](Cc2ccccc2)C(=O)NCc2cccc(F)c2)nc(NCCc2cccnc2)n1 | 1.34
24 | CCCc1cc(OC)c(C[C@@H]2c3cc(O)c(Cl)cc3CCN2C)cc1OC | 0.72

Row | SMILES | IC50 [µM]
25 | O=C(Nc1cccc(F)c1)c1ccc(C(=O)NC2CCN(CC3CCCCC3)CC2)cc1 | 0.86
26 | Nc1nccc2ccc(-c3ccc(Oc4ccccc4)cc3)cc12 | 0.28
27 | CC(C)c1ccc(CN2CCC(CNC(=O)c3cc(-c4ccc(N(C)C)cc4)cs3)C2)cc1 (stereo not given) | 1.25
28 | COc1cc(NC(=O)c2nn(CCCN3CCC4(CC3)C(=O)NCN4c3ccccc3)cc2-c2ccc(Cl)c(Cl)c2)cc(OC)c1OC | 0.75
29 | Cc1[nH]c(C)c(-c2ccc(OCc3ccc(F)cc3)cc2)c(=O)c1Cl | 0.57
30 | Cc1c(C(C)(C)C)ccc2nc(N)nc(N)c12 | 0.01
31 | FC(F)(F)c1ccc2nccc(NN=Cc3cccc(Cl)c3)c2c1 | 0.82
32 | CN(C(=O)/C=C/c1cc(C(F)(F)F)ccc1F)C1CCN(CCCCCNC(=O)/C=C/c2ccc(Cl)c(Cl)c2)CC1 | 0.29
33 | CN(/N=C/C=C/c1ccc(Cl)cc1)c1nc(NCCc2ccc(O)cc2)nc(N2CCNCC2)n1 | 0.87
34 | O=C(/C=C/c1ccc(Cl)c(Cl)c1)NCCCCCCN1CCCN(C(=O)Nc2ccc(F)c(F)c2)CC1 | 1.24
35 | O=C(CCN1C(=O)c2ccccc2C1=O)N1CCN(CC=Cc2ccccc2)CC1 | 0.54
36 | CCCCc1ccc(-c2nc(NC(=O)Nc3nc(-c4ccccc4)[nH]c3C(=O)OCC)c(C(=O)OCC)[nH]2)cc1 | 0.75
37 | CC(C)N1CCN(C(=O)c2ccc(CNCCCN3CCN(c4ccccc4C(F)(F)F)CC3)s2)CC1 | 0.84
38 | CCCn1c(Sc2ccc(C#N)c([N+](=O)[O-])c2)nnc1-c1ccc(N(C)C)cc1 | 0.13
39 | O=c1[nH]c2ccc(Nc3nccc(NCCc4ccccc4)n3)cc2[nH]1 | 1.21
40 | Fc1ccc(-c2csc3ncnc(Cl)c23)cc1 | 0.33
41 | c1ccc(CN2CCC(NCc3ccc(-c4cncc5ccccc45)cc3)CC2)cc1 | 0.88
42 | CCCCCN1CCC(NC(=O)c2ccc(C(=O)Nc3ccc(C(C)C)cc3)cc2)C1 (stereo not given) | 0.95
43 | O=C(NCCCCN1CCN(c2ccc3c(c2)CCC3)CC1)c1ccc(NC(=O)c2ccc(Cl)cc2)cc1 | 0.68
44 | N#Cc1ccc(-c2ccc(C(=O)NCCCCN3CCC(c4ccc5c(c4OCC(N)=O)CCCC5)CC3)cc2)cc1 | 0.98
45 | COc1ccc(CN2CCCN(Cc3cccc(NC(=O)c4ccc(Cl)c(Cl)c4)c3)CC2)cc1 | 0.97
46 | CCC(C)NCCC(c1ccccc1)c1ccccc1O (stereo not given) | 0.79
47 | Nc1nccc2ccc(-c3ccc(NC(=O)Nc4cc(C(F)(F)F)ccc4F)cc3)cc12 | 0.09
48 | CCNc1cc(C(=O)N[C@@H](Cc2ccccc2)[C@H](O)CNCCc2ccccc2)cc(N2CCCC2=O)c1 | 0.84

Row | SMILES | IC50 [µM]
49 | CN(C)Cc1ccc(-c2cc3ncnc(Nc4ccc(OCc5cccc(F)c5)c(Cl)c4)c3s2)[nH]1 | 0.17
50 | Cc1cccc(C(=O)Nc2ccnc(N(C)C3CCN(Cc4cccc(O)c4)CC3)c2)c1 | 0.94
51 | CCOC(=O)c1ccc(NC(=O)N[C@@H](Cc2ccccc2)C(=O)NC2CCN(Cc3ccc(O)c(OC)c3)C2)cc1 (stereo not given in full) | 0.99
52 | COc1ccc(CCn2c(C3CCCCC3)nc3oc4ccccc4c(=O)c3c2=O)cc1 | 0.95
53 | CCCCCCC(C)c1cc(O)c2c(c1)OC(C)(C)C=C2c1ccncc1 (stereo not given) | 0.73
54 | O=C(Nc1cccc(-c2ccc(NCCCN3CCCC3)nc2)c1)c1ccccc1 | 0.87
55 | O=C(Nc1ccc2c(c1)CCN2C1CCN(Cc2cc(F)cc(F)c2F)C1)c1ccco1 (stereo not given) | 0.59
56 | Clc1ccccc1CN1CCC(NCc2cccc(-n3ccnc3)c2)CC1 | 0.79
57 | COc1cccc(-c2cccc(CNC3CCN(CC4Cn5c(=O)ccc6ccc(F)c4c65)CC3)c2)c1 (stereo not given) | 0.93
58 | O=C1CCCN1CCCNCc1cccc(-c2ccc(-c3nc4ccc(C(F)(F)F)cc4[nH]3)cc2)c1 | 0.3
59 | O=c1[nH]c2ccc3[nH]cccc3c2c1C=Nc1ccc(N2CCN(CCO)CC2)cc1 | 1.27
60 | CC(C)CN1CCCN(Cc2cccc(NC(=O)c3ccc(Cl)c(Cl)c3)c2)CC1 | 0.89
61 | CN1CC[C@@H](Oc2cc(NC(=O)Nc3ccc(Cl)c(C(F)(F)F)c3)ccc2Cl)C1 | 0.99
62 | COc1ccc(-c2ccccc2CNC2Cc3ccccc3C2)cc1S(=O)(=O)NCCN1CCCC1 | 0.87
63 | CN(CCCCNC(=O)c1ccc(-c2ccccc2)cc1)C1CCc2c(O)cccc2C1 (stereo not given) | 0.72
64 | O=C(C=Cc1ccc(Br)cc1)NC1CCC(CN2CCC(c3c[nH]c4ccccc34)CC2)CC1 (stereo not given) | 0.68
65 | O=C(/C=C/c1ccccc1)N1CCOC(CCN2CCC(c3ccccc3)CC2)(c2ccc(Cl)c(Cl)c2)C1 (stereo not given) | 0.52
66 | O=C(Nc1cccc(-c2ccc(CN3CCC(O)CC3)cc2)c1)c1cccc(Cl)c1 | 0.76
67 | CCCN(CCCCCCNCCc1ccc(Cl)cc1)CCc1ccc(O)c(O)c1 | 0.94
68 | N=C1c2ccccc2CN1CC(=O)c1ccc(Cl)c(Cl)c1 | 0.73
69 | CC(C)CNCc1cccc(-c2ccc(CN(CCCN3CCN(C)CC3)C(=O)CCC3CCCC3)cc2)c1 | 0.88
70 | Oc1ccc2nc(NCCCc3ccccc3)nc(NCCCc3ccccc3)c2c1 | 0.4
